According to PubChem BioAssay AID1996:
≈ marks a conversion by molar mass, not a printed value.

conditions: buffer; pH 7.4; 200.0 µM

Row | SMILES | solubility kinetic [µg/mL]
1 | Clc1nc(Cl)nc(NCCC2=CCCCC2)n1 | > 41
2 | COc1ccc(Cl)cc1N1C(=N)SCC1=O | > 38.5
3 | CC(C)(C)NC(=O)Cn1c(SCC(=O)NC2CCCC2)nc2ccccc21 | 52.9 (≈ 136 µM)
4 | O=C(NCCNC(=O)c1ccc(Cl)cc1Cl)c1ccco1 | 30.7 (≈ 93.8 µM)
5 | Cc1cccc(C)c1NC(=O)NC1(C(=O)N2CCCCC2)CCCCC1 | 45.6 (≈ 128 µM)
6 | CC(C)(C)c1ccccc1OCC(=O)NCCCn1ccnc1 | > 47.3
7 | O=C(Nc1ccncc1)Nc1ccc(F)cc1 | 29.9 (≈ 129 µM)
8 | Cc1ccc(Oc2ncccc2NC(=O)CCCC(=O)O)c2c1CCC2 | > 53.2
9 | O=C(NCCNC(=O)c1ccccn1)c1cccc(F)c1 | 41.7 (≈ 145 µM)
10 | Cc1ccc(N=C2NC(=O)C(CO)(CO)S2)cc1 | 27.1 (≈ 102 µM)
11 | COc1ccc(C(=O)Nc2cc3c4c(c2)C(C)C(=O)N4CCC3)cc1 (centres undefined) | 38.6 (≈ 115 µM)
12 | CN(CC(=O)Nc1ccc(F)c(F)c1F)C(=O)C1CCCO1 (centres undefined) | > 47.4
13 | O=C(CN1C(=O)NC2(CCCCCC2)C1=O)NCc1ccc(Cl)cc1 | 23.5 (≈ 64.6 µM)
14 | Cc1cc(Cl)ccc1OCCCC(=O)OCC(N)=O | 42.3 (≈ 148 µM)
15 | Cc1onc(-c2ccccc2)c1C(=O)Nc1nncs1 | > 42.9
16 | CN(C(=O)CN1CCN(c2ccccc2F)CC1)C1CCCc2ccccc21 (centres undefined) | > 57.2
17 | Cc1ccc(-c2ncns2)cc1 | 0.5 (≈ 2.84 µM)
18 | O=C(COc1ccc(Cl)cc1)Nc1ncc([N+](=O)[O-])s1 | 3.2 (≈ 10.2 µM)
19 | O=C(CNC(=O)c1ccccc1F)N/N=C/c1cccnc1 | > 45
20 | CN(CCC#N)Cc1cc(=O)oc2ccc3ccccc3c12 | 33.5 (≈ 115 µM)
21 | CN(C)c1ccc(/C=C/C(=O)c2ccc3c(c2)OCO3)cc1 | 2.9 (≈ 9.82 µM)
22 | COc1ccc(-n2c(C)cc(/C=C3\SC(=O)NC3=O)c2C)cc1 | 3.9 (≈ 11.9 µM)
23 | CC(C)(CN)CC(=O)O.Cl | 23.2
24 | O=C(O)C(Cc1ccccc1)N1C(=O)CCC1=O (centres undefined) | > 37.1

Row | SMILES | solubility kinetic [µg/mL]
25 | COC(=O)CC1C(=O)NCCN1C(=S)Nc1ccc(F)cc1 (centres undefined) | > 48.8
26 | COc1ccc(-c2c(C(=O)O)c(C(=O)O)c3n2CCC3)cc1 | > 45.2
27 | CNC(=O)c1ccc(Nc2nc(-c3ccccc3)nc3ccccc23)cc1 | 14.9 (≈ 42 µM)
28 | Cc1ccc(NC(=O)NCC(c2ccccc2)N(C)C)cc1 (centres undefined) | > 44.6
29 | O=C(CCCN1C(=O)/C(=C\c2ccccc2)SC1=S)N1CCOCC1 | 9.8 (≈ 26 µM)
30 | O=C(CSc1cc(Cl)ccc1Cl)NCCCn1ccnc1 | 45.3 (≈ 132 µM)
31 | Cc1cc(C)c2c(CN3CCCCC3C)cc(=O)oc2c1.Cl (centres undefined) | 2
32 | Cc1ccc(-c2ccc(CCC(=O)O)n2-c2cccc(C(=O)O)c2)cc1 | 50.4 (≈ 144 µM)
33 | O=C(COc1ccc(Cl)cc1Cl)N1CCNC1=O | 31 (≈ 107 µM)
34 | Oc1c(CN2CCOCC2)ccc2ccccc12 | 16.9 (≈ 69.5 µM)
35 | CC(C)(CC(=O)O)CC(=O)Nc1ccc(Cl)c(Cl)c1 | > 45.6
36 | O=C(NCc1ccc2c(c1)OCO2)c1ccc(Br)o1 | > 48.6
37 | Nc1c([N+](=O)[O-])c(=O)oc2ccccc12 | > 30.9
38 | O=C(c1ccc(Br)cc1)C12CN3CN(CN(C3)C1)C2 | > 48.3
39 | CCN(CC)C(=O)C1CCCN(C/C=C/c2ccccc2[N+](=O)[O-])C1 (centres undefined) | 41.7 (≈ 121 µM)
40 | COc1ccc(CN2C(=O)CCCc3ccccc32)cc1 | > 42.2
41 | O=C1NC(c2ccccc2)Oc2ccccc21 (centres undefined) | 22.9 (≈ 102 µM)
42 | CC1Oc2ccccc2N(Cc2cccc(F)c2)C1=O (centres undefined) | 18.6 (≈ 68.6 µM)
43 | CCN(CC)c1ccc(C(=S)NCc2ccccc2)cc1 | 0.5 (≈ 1.68 µM)
44 | CC1c2ccsc2CCN1S(=O)(=O)c1cccs1 (centres undefined) | 23.5 (≈ 78.5 µM)
45 | CCN1CCN(C(=O)c2cc(=O)c3cc(C)ccc3o2)CC1 | > 45.1
46 | O=C(Nc1ccc(O)cc1)/C(=C/c1ccco1)NC(=O)c1ccccc1 | > 52.3
47 | CCCC(=O)Nc1nnc(-c2ccc3c(c2)OCCO3)o1 | > 43.4
48 | CCOC(=O)CN1C(=O)S/C(=C\c2ccc(-c3cccc(C(=O)O)c3C)o2)C1=O | 56.9 (≈ 137 µM)

Row | SMILES | solubility kinetic [µg/mL]
49 | COc1ccc2nc(NC(=O)C34CC5CC(CC(NC(C)=O)(C5)C3)C4)sc2c1 | 41.2 (≈ 103 µM)
50 | CCC(C)NC(=O)CSc1ncnc2sccc12 (centres undefined) | > 42.2
51 | CC1(C)OCC(COC(=O)Nc2cccnc2)([N+](=O)[O-])CO1 | 39.8 (≈ 128 µM)
52 | COc1cc(C(=O)COC(=O)c2c(C)noc2C)cc(OC)c1OC | > 52.4
53 | Cc1ccc(-c2cn(-c3ccccc3)c(=S)[nH]2)cc1C | 16.6 (≈ 59.2 µM)
54 | Cc1ccc(C)c(OCC(=O)Nc2ccccc2N2CCCC2)c1 | 1.3 (≈ 4.01 µM)
55 | O=C(COC(=O)c1cccc(Cl)c1)Nc1ccc2[nH]c(=O)[nH]c2c1 | 0.8 (≈ 2.31 µM)
56 | CCOc1cc2c(cc1OCC)C(c1ccc(F)cc1)NCC2 (centres undefined) | > 47.3
57 | O=C(NCCSCc1ccco1)c1ccc(=O)[nH]c1 | 38.2 (≈ 137 µM)
58 | O=C(CC1OCC2CCCN2C1=O)Nc1ccc([N+](=O)[O-])cc1 (centres undefined) | 45.5 (≈ 142 µM)
59 | O=C(CSc1nnc(-c2ccccc2)o1)NC1CC1 | > 41.3
60 | CCN(CC(=O)NC1CC1)S(=O)(=O)c1ccc(OC)cc1 | > 46.9
61 | CC(C(=O)NC(C)(C)C)N1C(=O)c2cccc3cccc(c23)C1=O (centres undefined) | 40.2 (≈ 124 µM)
62 | CCOC(=O)Cn1c(C)c(Br)c(COC)c(C#N)c1=O | > 51.5
63 | CCN1CCCC1CNC(=O)CCc1nnc(CCC2CCCCC2)o1 (centres undefined) | > 54.4
64 | CCOC(=O)c1cn2c(C)cccc2n1 | > 30.6
65 | Cc1ccc(NC(=O)CN2C(=O)S/C(=C\c3ccccn3)C2=O)cc1 | 0.9 (≈ 2.55 µM)
66 | O=C(O)C1C2C=CC(O2)C1C(=O)NCCc1cccc(Cl)c1 (centres undefined) | > 48.3
67 | COc1ccc(-n2c(CCC(=O)O)ccc2-c2ccccc2)cc1 | > 48.2
68 | CCOC(=O)c1cnc(/N=C/N(C)C)s1 | 29.6 (≈ 130 µM)
69 | Nc1cccc(-c2cc3ccccc3oc2=O)c1 | > 35.6
70 | CCOC(=O)Cc1csc(NC(=O)Cc2ccc(Br)cc2)n1 | 5.9 (≈ 15.4 µM)
71 | CC(C)(C)Nc1nc(Cl)nc(NCc2ccccc2)n1 | 8 (≈ 27.4 µM)
72 | CC(C)c1ccc(NC(=O)CN2C(=O)NC3(CCCCCCC3)C2=O)cc1 | 16.4 (≈ 44.1 µM)

Row | SMILES | solubility kinetic [µg/mL]
73 | CCCCc1ccc(NC(=O)C2CCCC2)cc1 | 1.9 (≈ 7.74 µM)
74 | COc1cc2c(cc1OC)C(CCc1ccccc1)=NCC2 | 42.6 (≈ 144 µM)
75 | Cc1ccc(NC(=O)CN2CCCCCC2)cc1[N+](=O)[O-] | 1.2 (≈ 4.12 µM)
76 | CCCS(=O)(=O)N1CCC(C(=O)NCCC(C)C)CC1 | > 45.7
77 | COc1ccccc1-c1nnc(SCC(=O)N2CCCC2)o1 | > 47.9
78 | CCOC1=C/C(=C/c2c(N)n3oc(C)cc3nc2=O)C=CC1=O | 11.9 (≈ 38 µM)
79 | Cc1noc(C)c1S(=O)(=O)N1CCCC1C(=O)O (centres undefined) | > 41.1
80 | Cc1ccccc1NC(=S)N1CCCCCC1 | > 37.3
81 | O=S(=O)(NCc1ccc2c(c1)OCO2)c1ccccc1F | 37.1 (≈ 120 µM)
82 | COc1ccc(CNc2nc3ccccc3n2C(C)C)c(O)c1 | 25.7 (≈ 82.5 µM)
83 | COc1cc(/C=C/C(=O)OCC(=O)c2ccc[nH]2)cc(OC)c1OC | 9.4 (≈ 27.2 µM)
84 | COc1ccc2c(c1)c1ncn(Cc3ccc(F)cc3)c(=O)c1n2C | 2.5 (≈ 7.41 µM)
85 | CN(C)C(=O)c1ccc(-n2cnc3ccccc3c2=O)cc1 | > 44
86 | COCCNC(=O)C(C)OC(=O)C1=Cc2ccccc2OC1 (centres undefined) | > 45.8
87 | Cc1ccc(S(=O)(=O)NCCc2cccs2)cc1 | > 42.2
88 | COc1nc2ccccc2nc1N1CCN(C)CC1 | 38.4 (≈ 149 µM)
89 | Cc1csc(NC(=O)c2cnc3ccccc3n2)n1 | 12.5 (≈ 46.2 µM)
90 | O=C(Nc1ccc(N2CCCC2)cc1)c1cc2ccccc2o1 | 0.4 (≈ 1.31 µM)
91 | Cc1cc(=O)oc2cc(OCC(=O)NC3CCCCC3)c(Cl)cc12 | 4.6 (≈ 13.1 µM)
92 | CCCNc1nc(N2CCCC2)nc(N2CCCC2)n1 | 33.6 (≈ 122 µM)
93 | CN1CCN(c2cc3c(cc2F)c(=O)c(C(=O)O)cn3CCF)CC1 | > 52.7
94 | CSc1cccc(NC(=S)Nc2ccc(F)cc2)c1 | 34.5 (≈ 118 µM)
95 | Cc1cc(NC(=O)CN2C(=O)NC(C)(c3ccc(Cl)cc3Cl)C2=O)no1 (centres undefined) | 7.4 (≈ 18.6 µM)
96 | O=C(CN1C(=O)/C(=C2/SC(=S)N(CCS(=O)(=O)O)C2=O)c2ccccc21)Nc1cccc(C(F)(F)F)c1 | 5.9 (≈ 10.3 µM)

Row | SMILES | solubility kinetic [µg/mL]
97 | O=C(Nc1ccc(F)c(Cl)c1)N1CCCCCC1 | 5.8 (≈ 21.4 µM)
98 | COc1cc(S(=O)(=O)NCCCn2ccnc2)ccc1F | 46.2 (≈ 147 µM)
99 | CC(NC(=O)/C(=C\c1ccco1)NC(=O)c1ccco1)C(=O)O (centres undefined) | 46.5 (≈ 146 µM)
100 | CC(=O)Nc1ccc(S(=O)(=O)Nc2ccc3nc(C)sc3c2)cc1 | 14.6 (≈ 40.4 µM)
101 | CC(C)=C(NC(=O)c1ccccc1)C(=O)Nc1cccc(C)c1 | 2.8 (≈ 9.08 µM)
102 | COc1cc(/C=C/c2ccc3cccc(O)c3n2)cc(OC)c1OC | < 0.7
103 | Cc1nnc(-c2ccc(N3CCOCC3)c([N+](=O)[O-])c2)o1 | > 43.5
104 | CCC(C)NC(=O)COC(=O)c1ccc(Cl)cc1O (centres undefined) | 4.7 (≈ 16.4 µM)
105 | O=C1NC(=S)N/C1=C/c1cccnc1 | > 30.8
106 | Cc1cc(=O)oc2cc(NC(=O)Cc3ccccc3[N+](=O)[O-])ccc12 | 0.9 (≈ 2.66 µM)
107 | O=[N+]([O-])c1ccc(-c2nc(C(Cl)Cl)c3ccccc3n2)cc1 | 0.5 (≈ 1.5 µM)
108 | CCCCNC(=NCc1cccc(C(F)(F)F)c1)Nc1ccccc1 | 45.7 (≈ 131 µM)
109 | O=C(COC(=O)CCC(=O)c1cccs1)NCCc1ccccc1 | > 51.8
110 | COC(=O)c1ccc(N2CCCCC2)c(N)c1 | > 35.1
111 | COc1ccc(CCNC(=O)COC(=O)c2ccc(S(=O)(=O)N3CCCC3)cc2)cc1OC | 7.2 (≈ 15.1 µM)
112 | CC(=O)Nc1ccc(C(=O)Nc2ccc3c(c2)OCCO3)cc1 | 22.8 (≈ 73 µM)
113 | Cc1ccc(OCC(O)CNC(C)c2ccccc2)cc1C.Cl (centres undefined) | 45.9
114 | Cc1c(NC(=O)C(C)OC(=O)c2ccccc2O)c(=O)n(-c2ccccc2)n1C (centres undefined) | > 59.3
115 | COc1ccc(-c2ncnc(C(F)(F)F)c2-c2csc(C)n2)c(O)c1 | 53.1 (≈ 145 µM)
116 | Cc1ccc(C)c(-n2c(=O)c(C#N)cc3c(=O)n4ccccc4nc32)c1 | 6.2 (≈ 18.1 µM)
117 | CCOC(=O)/C(C#N)=C/c1c(Oc2cccc(C)c2)nc2ccccn2c1=O | 0.7 (≈ 1.86 µM)
118 | Cc1nc(C(F)(F)F)ccc1C(=O)Nc1ccccc1N1CCOCC1 | 50.8 (≈ 139 µM)
119 | Cn1cnc(NCc2ccccc2)c1[N+](=O)[O-] | 1.2 (≈ 5.17 µM)
